Columns and labels:
Beta-secretase 1 [1] = target: T1, Beta-secretase 1 (Homo sapiens, UniProt P56817); experiment: Inhibition of BACE1 (unknown origin) at 100 uM relative to control
Acetylcholinesterase [2] = target: T2, Acetylcholinesterase (Homo sapiens, UniProt P22303); experiment: Inhibition of AChE (unknown origin) at 100 uM relative to control
Acetylcholinesterase [3] = target: T2, Acetylcholinesterase; experiment: Inhibition of AChE (unknown origin)
Beta-secretase 1 [4] = target: T1, Beta-secretase 1; experiment: Inhibition of BACE1 (unknown origin)
Beta-secretase 1 [5] = target: T1, Beta-secretase 1; experiment: Inhibition of BACE1 (unknown origin) at 2.5 uM relative to control
Acetylcholinesterase [6] = target: Acetylcholinesterase (Electrophorus electricus, UniProt O42275); experiment: Inhibition of Electrophorus electricus AchE
Sequence of Acetylcholinesterase (Electrophorus electricus, UniProt O42275) (O42275 whole entry): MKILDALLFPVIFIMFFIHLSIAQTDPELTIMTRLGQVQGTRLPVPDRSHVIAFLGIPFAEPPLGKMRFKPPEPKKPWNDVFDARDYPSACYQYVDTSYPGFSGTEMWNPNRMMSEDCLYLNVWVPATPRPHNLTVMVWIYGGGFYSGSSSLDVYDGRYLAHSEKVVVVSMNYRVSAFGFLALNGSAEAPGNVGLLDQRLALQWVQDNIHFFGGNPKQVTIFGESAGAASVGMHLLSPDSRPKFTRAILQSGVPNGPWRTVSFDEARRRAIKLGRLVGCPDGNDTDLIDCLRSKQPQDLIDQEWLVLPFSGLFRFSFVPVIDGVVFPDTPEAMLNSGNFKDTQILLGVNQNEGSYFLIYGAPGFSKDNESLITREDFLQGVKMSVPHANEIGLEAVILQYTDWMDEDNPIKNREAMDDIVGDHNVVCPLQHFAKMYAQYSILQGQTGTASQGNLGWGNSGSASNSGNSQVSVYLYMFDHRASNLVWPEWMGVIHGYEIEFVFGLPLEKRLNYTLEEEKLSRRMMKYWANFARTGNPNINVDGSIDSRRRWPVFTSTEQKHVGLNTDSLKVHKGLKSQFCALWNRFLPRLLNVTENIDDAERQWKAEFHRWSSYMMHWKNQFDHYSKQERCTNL

Beta-secretase 1 [7] = target: T1, Beta-secretase 1; experiment: Inhibition of human recombinant BACE1
Acetylcholinesterase [8] = target: T2, Acetylcholinesterase; experiment: Inhibition of human recombinant AchE
Beta-secretase 1 [9] = target: T1, Beta-secretase 1; experiment: Inhibition of BACE1 (unknown origin) at 5 uM relative to control

T2 sequence (P22303 whole entry): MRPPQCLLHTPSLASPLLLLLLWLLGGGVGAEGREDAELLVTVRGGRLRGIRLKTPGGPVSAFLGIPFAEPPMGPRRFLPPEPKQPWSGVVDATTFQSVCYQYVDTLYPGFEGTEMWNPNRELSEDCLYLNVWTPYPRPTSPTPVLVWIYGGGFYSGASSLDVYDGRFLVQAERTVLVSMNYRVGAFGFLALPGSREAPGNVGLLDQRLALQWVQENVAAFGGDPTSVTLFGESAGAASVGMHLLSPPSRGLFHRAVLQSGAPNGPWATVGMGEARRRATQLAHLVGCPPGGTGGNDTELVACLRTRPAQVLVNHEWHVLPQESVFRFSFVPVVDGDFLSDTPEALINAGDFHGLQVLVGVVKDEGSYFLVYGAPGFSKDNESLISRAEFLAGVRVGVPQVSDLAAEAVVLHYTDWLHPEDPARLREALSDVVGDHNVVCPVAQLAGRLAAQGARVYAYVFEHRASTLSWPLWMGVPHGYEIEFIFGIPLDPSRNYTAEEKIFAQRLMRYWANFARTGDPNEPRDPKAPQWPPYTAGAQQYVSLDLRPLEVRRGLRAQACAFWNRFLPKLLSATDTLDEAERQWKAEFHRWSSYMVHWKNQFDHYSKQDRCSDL
T1 sequence (P56817 whole entry): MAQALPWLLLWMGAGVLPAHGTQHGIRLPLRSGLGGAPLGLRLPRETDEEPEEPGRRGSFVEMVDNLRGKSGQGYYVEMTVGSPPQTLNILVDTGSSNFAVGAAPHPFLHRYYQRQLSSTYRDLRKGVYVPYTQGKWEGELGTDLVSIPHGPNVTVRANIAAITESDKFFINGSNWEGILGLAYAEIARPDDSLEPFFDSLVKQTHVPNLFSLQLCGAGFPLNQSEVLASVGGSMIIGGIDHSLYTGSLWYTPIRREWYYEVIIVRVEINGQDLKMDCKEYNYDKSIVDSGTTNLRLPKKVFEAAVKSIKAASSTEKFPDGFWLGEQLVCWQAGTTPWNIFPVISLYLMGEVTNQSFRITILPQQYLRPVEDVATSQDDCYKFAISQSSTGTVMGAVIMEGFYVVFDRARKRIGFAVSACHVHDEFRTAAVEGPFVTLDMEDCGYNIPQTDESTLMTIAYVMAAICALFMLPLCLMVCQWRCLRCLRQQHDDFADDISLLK

Compound | IC50 (Acetylcholinesterase [3]) [nM] | IC50 (Beta-secretase 1 [4]) [nM] | further results
COc1cc(O)c(C(=O)/C=C/c2ccc(O)cc2)cc1CC=C(C)C |  |  | inhibition (Beta-secretase 1 [1]): 68%; inhibition (Acetylcholinesterase [2]): 46%
COc1ccc(NCC2CCN(Cc3ccccc3)CC2)cc1 | 165 | 253 | 
C/C(=C\C1=CCN(C(=O)CCc2ccccc2)C(=O)C1)N1C(=O)c2ccccc2C1=O | 55.3 | 2.07 | 
COc1cc(/C=C/c2nnc(-c3ccc(Cl)cc3Cl)o2)ccc1O | 0.22 | 0.864 | 
O=C(NCCCCCCCCNc1c2c(nc3cc(Cl)ccc13)CCCC2)c1ccc2nc(-c3ccc(Cl)cc3)c3c(c2c1)OCCC3 |  |  | inhibition (Beta-secretase 1 [5]): 18.5%
COc1cc(/C=C/c2nnc(-c3ccc(F)cc3F)o2)ccc1O | 0.19 | 0.624 | 
O=C(CCc1ccc2nc(-c3ccccc3)c3c(c2c1)OCCC3)NCCCCCCNc1c2c(nc3cc(Cl)ccc13)CCCC2 |  |  | inhibition (Beta-secretase 1 [5]): 19.6%
COc1ccc(-c2oc3cc(OC)c(I)cc3c(=O)c2O)cc1 | 7.19 | 22.4 | 
COc1ccccc1C(=O)N1Cc2ccc(N3C(=O)c4ccccc4C3=O)cc2CC1=O | 81.7 | 2.96 | 
Cc1cc2c(c(C)c1CCO[C@@H]1O[C@H](CO)[C@@H](O)[C@H](O)[C@H]1O)C(=O)[C@@H](C)[C@H]2O | 9170 |  | 
CCC1=CC2Cc3nc4cc(Cl)ccc4c(NCCCN4CCC(CC5Cc6cc(OC)c(OC)cc6C5)CC4)c3C(C1)C2 (racemic) [listing 1 of 2 here] | 6.32 |  | 
Cc1cc2c(c(C)c1CCO[C@@H]1O[C@H](CO)[C@@H](O)[C@H](O)[C@H]1O)C(=O)C(C)(C)[C@H]2O | 27400 | 10700 | 
COc1cc2c(cc1OC)CC(CC1CCN(CCCNc3c4c(nc5cc(Cl)ccc35)CC3C=C(C)CC4C3)CC1)C2 (racemic) [listing 1 of 2 here] | 5.37 |  | 
CC(C)=CCC/C(C)=C/CC/C(C)=C\Cc1c(O)cc(O)c(CC=C(C)C)c1-c1cc2ccc(O)cc2o1 | 13900 | 2030 | 
O=C(CCc1ccc2nc(-c3ccccc3)c3c(c2c1)OCCC3)NCCCCCCCCNc1c2c(nc3cc(Cl)ccc13)CCCC2 |  |  | inhibition (Beta-secretase 1 [5]): 77.8%
COc1cc(/C=C/c2nnc(-c3ccc(OC(F)(F)F)cc3)o2)ccc1O | 0.092 | 0.211 | 
CCCCCCCCCCCC1=CC(=O)C=CC1=O |  |  | IC50 (Acetylcholinesterase [6]): 2500 nM; IC50 (Beta-secretase 1 [7]): 2110 nM; IC50 (Acetylcholinesterase [8]): 7910 nM
O=c1c(/C=N/Nc2ccc(C(F)(F)F)cc2)coc2cc3oc(-c4cccc(Cl)c4)cc3cc12 | 18300 | 32800 | 
O=C(/C=C/c1ccc(O)c(O)c1)O[C@@H]1[C@H](O)C[C@@](O)(C(=O)O)C[C@H]1OC(=O)/C=C/c1ccc(O)c(O)c1 | 2140 | 3310 | 
COc1cc2c(cc1OC)CC(CC1CCN(CCCNc3c4c(nc5cc(Cl)ccc35)CC3C=C(C)CC4C3)CC1)C2 (single isomer, unassigned; (-)) [listing 1 of 2 here] | 2.61 |  | 
CC(C)=CCC/C(C)=C/Cc1c(O)ccc2cc(-c3cc(O)cc(O)c3CC=C(C)C)oc12 [MULBERROFURAN D] | 23000 | 3740 | 
Cc1cc2c(c(C)c1CCO[C@@H]1O[C@H](CO)[C@@H](O)[C@H](O)[C@H]1O)C(=O)[C@H](C)C2 | 2550 | 18000 | 

Compound | IC50 (Acetylcholinesterase [3]) [nM] | IC50 (Beta-secretase 1 [4]) [nM] | further results
COc1ccc(/C=C/C(=O)c2cc(I)c(OC)cc2O)cc1 | 11 | 70.8 | 
COc1ccc(-c2oc3cc(Br)c(I)cc3c(=O)c2O)cc1 |  | 15.7 | 
O=c1c(O)c(-c2ccc(O)c(O)c2)oc2cc(O)cc(O)c12 [QUERCETIN] | 2910 |  | 
CCC1=CC2Cc3nc4cc(Cl)ccc4c(NCCCN4CCC(CC5Cc6cc(OC)c(OC)cc6C5)CC4)c3C(C1)C2 (racemic) [listing 2 of 2 here] |  |  | inhibition (Beta-secretase 1 [9]): 18%
O=c1c(/C=N/Nc2ccc(C(F)(F)F)cc2)coc2c1ccc1oc(-c3ccc(Cl)cc3)cc12 | 5400 | 13600 | 
COc1cc(/C=C/c2nnc(-c3ccc(Cl)cc3)o2)ccc1O | 0.334 | 0.628 | 
O=C(CCc1ccc2nc(-c3ccccc3)c3c(c2c1)OCCC3)NCCCCCCCNc1c2c(nc3cc(Cl)ccc13)CCCC2 | 11.4 |  | inhibition (Beta-secretase 1 [5]): 34.4%
COc1cc(O)c(C(=O)/C=C/c2ccc(F)cc2)cc1I | 9.38 | 25.1 | 
Cc1cc2c(c(C)c1CCO[C@@H]1O[C@H](CO)[C@@H](O)[C@H](O)[C@H]1O)C(=O)[C@H](C)[C@H]2O | 3770 | 9740 | 
CC(C)=CCc1c(O)ccc(C(=O)/C=C/c2ccc(O)cc2)c1O |  |  | inhibition (Beta-secretase 1 [1]): 34%; inhibition (Acetylcholinesterase [2]): 83%
COc1cc2c(cc1OC)CC(CC1CCN(CCNc3c4c(nc5cc(Cl)ccc35)CC3C=C(C)CC4C3)CC1)C2 (configuration not stated) | 13 |  | inhibition (Beta-secretase 1 [9]): 24.6%
O=C(/C=C/c1ccc(F)cc1)c1cc(I)c(Br)cc1O | 11 | 4.7 | 
O=c1c(/C=N/Nc2ccc(C(F)(F)F)cc2)coc2cc3oc(-c4cccc(F)c4)cc3cc12 | 7600 | 17300 | 
COc1ccccc1NC(=O)C1CCN(C(=O)c2ccccc2)CC1 | 8.46 | 18.5 | 
COc1ccc(/C=C/C(=O)c2cc(I)c(Cl)cc2O)cc1 | 11.7 | 13.8 | 
CCC1=CC2Cc3nc4cc(Cl)ccc4c(NCCN4CCC(CC5Cc6cc(OC)c(OC)cc6C5)CC4)c3C(C1)C2 (single isomer, unassigned; (-)) | 28.6 |  | inhibition (Beta-secretase 1 [9]): 12.5%
COc1cc(/C=C/c2nnc(-c3ccc(F)cc3)o2)ccc1O | 0.284 | 0.479 | 
O=c1c(/C=N/Nc2ccc(C(F)(F)F)cc2)coc2c1ccc1oc(-c3cccc(F)c3)cc12 | 10400 | 15800 | 
CC(C)=CCCC1(C)C=Cc2c(ccc3cc(-c4cc(O)cc(O)c4CC=C(C)C)oc23)O1 (configuration not stated) | 4610 |  | 
COc1ccc(C(=O)N2Cc3ccc(N4C(=O)c5ccccc5C4=O)cc3CC2=O)cc1 | 81.8 | 1.69 | 
COc1cc(O)cc(-c2cc3ccc(O)c(C/C=C(\C)CCC=C(C)C)c3o2)c1CC=C(C)C | > 200000 |  | 
O=c1c(O)c(-c2ccc(F)cc2)oc2cc(F)c(I)cc12 | 3.23 | 32.2 | 

Compound | IC50 (Acetylcholinesterase [3]) [nM] | IC50 (Beta-secretase 1 [4]) [nM] | further results
CCC1=CC2Cc3nc4cc(Cl)ccc4c(NCCCN4CCC(CC5Cc6cc(OC)c(OC)cc6C5)CC4)c3C(C1)C2 (stereo in doubt; (-)-36b) [listing 1 of 2 here] |  |  | inhibition (Beta-secretase 1 [9]): 14.9%
COc1ccccc1NCC1CCN(Cc2ccccc2)CC1 | 157 | 277 | 
COc1ccc(NC(=O)C2CCN(C(=O)c3ccccc3)CC2)cc1OC | 4.11 | 18.3 | 
COc1cc2c(cc1CC=C(C)C)C(=O)CC(c1ccc(O)cc1)O2 (configuration not stated) |  |  | inhibition (Beta-secretase 1 [1]): 20%; inhibition (Acetylcholinesterase [2]): 80%
O=C(NCCCCCCCNc1c2c(nc3cc(Cl)ccc13)CCCC2)c1ccc2nc(-c3ccc(Cl)cc3)c3c(c2c1)OCCC3 |  |  | inhibition (Beta-secretase 1 [5]): 14.5%
C/C=C1/C(O[C@@H]2O[C@H](CO)[C@@H](O)[C@H](O)[C@H]2O)OC=C(C(=O)OC)C1CC(=O)OCCc1ccc(O)c(O)c1 (some centres not stated) |  | 2760 | 
C[C@@H]1O[C@@H](OC[C@H]2O[C@@H](Oc3c(-c4ccc(O)c(O)c4)oc4cc(O)cc(O)c4c3=O)[C@H](O)[C@@H](O)[C@@H]2O)[C@H](O)[C@H](O)[C@H]1O [RUTIN] | 113000 | 3.8 | 
COc1ccc(-c2cc3cc4c(=O)c(/C=N/Nc5ccc(C(F)(F)F)cc5)coc4cc3o2)cc1 | 5400 | 25300 | 
Cc1cccc(C(=O)N2Cc3ccc(N4C(=O)c5ccccc5C4=O)cc3CC2=O)c1 | 25.5 | 4.45 | 
OCCc1ccc(O)c(O)c1 [HYDROXYTYROSOL] |  | 35 | 
CC12CC(c3c(O)cc(-c4cc5ccc(O)cc5o4)cc3O)CC3c4ccc(O)cc4OC31C2 (configuration not stated) | > 200000 | 1040 | 
O=c1c(O)c(-c2ccc(Cl)cc2)oc2cc(F)c(I)cc12 | 3.45 | 16.7 | 
COc1ccc(NC(=O)C2CCN(C(=O)c3ccccc3)CC2)cc1 | 9.78 | 19.1 | 
Oc1cc(O)cc(Oc2c(O)cc(O)c3c2Oc2c(cc(O)c(-c4c(O)cc5c(c4O)Oc4c(Oc6cc(O)cc(O)c6)c(O)cc(O)c4O5)c2O)O3)c1 | 4590 |  | 
COc1ccc(NCC2CCN(Cc3ccccc3)CC2)cc1OC | 145 | 243 | 
CCC1=CC2Cc3nc4cc(Cl)ccc4c(NCCCN4CCC(CC5Cc6cc(OC)c(OC)cc6C5)CC4)c3C(C1)C2 (stereo in doubt; (-)-36b) [listing 2 of 2 here] | 3.85 |  | 
COc1cc2c(cc1OC)CC(CC1CCN(CCCNc3c4c(nc5cc(Cl)ccc35)CC3C=C(C)CC4C3)CC1)C2 (single isomer, unassigned; (-)) [listing 2 of 2 here] |  |  | inhibition (Beta-secretase 1 [9]): 30.8%
CC(C)=CCc1cc2c(cc1O)O[C@H](c1ccc(O)cc1)CC2=O |  |  | inhibition (Beta-secretase 1 [1]): 14%; inhibition (Acetylcholinesterase [2]): 34%
COc1cc(/C=C/c2nnc(-c3ccc(C(F)(F)F)cc3)o2)ccc1O | 0.068 | 0.255 | 
O=C1Cc2cc(N3C(=O)c4ccccc4C3=O)ccc2CN1C(=O)c1ccccc1 | 65.6 | 5.87 | 
COc1cc2c(cc1OC)CC(CC1CCN(CCCNc3c4c(nc5cc(Cl)ccc35)CC3C=C(C)CC4C3)CC1)C2 (racemic) [listing 2 of 2 here] |  |  | inhibition (Beta-secretase 1 [9]): 29.1%
C[C@@H]1O[C@@H](O[C@@H]2[C@@H](O)[C@H](OCCc3ccc(O)c(O)c3)O[C@H](CO)[C@H]2OC(=O)/C=C/c2ccc(O)c(O)c2)[C@H](O)[C@H](O)[C@H]1O [ACETOSIDE] |  | 6.3 | 
